Laboratory results as given in ChEMBL document CHEMBL4350981, “Salinomycin and its derivatives - A new class of multiple-targeted "magic bullets"” (Eur J Med Chem, 2019).
≈ marks a conversion by molar mass, not a printed value.

Key:
Staphylococcus aureus [1] = assay: Antibacterial activity against methicillin-sensitive Staphylococcus aureus; type: functional
Staphylococcus aureus [2] = assay: Antibacterial activity against Staphylococcus aureus FDA 209P by agar diffusion method; type: functional
Staphylococcus aureus [3] = assay: Antibacterial activity against methicillin-resistant Staphylococcus aureus; type: functional
[4] = tested on: Staphylococcus epidermidis; assay: Antibacterial activity against methicillin-resistant Staphylococcus epidermidis; type: functional
Bacillus anthracis = assay: Antibacterial activity against Bacillus anthracis; type: functional
Mycolicibacterium phlei [5] = assay: Antibacterial activity against Mycobacterium phlei; type: functional
Micrococcus luteus = assay: Antibacterial activity against Sarcina lutea; type: functional
Staphylococcus aureus [6] = assay: Antibacterial activity against Staphylococcus aureus; type: functional
Bacillus subtilis = assay: Antibacterial activity against Bacillus subtilis; type: functional
[7] = tested on: Mycobacteroides abscessus; assay: Antimycobacterial activity against Mycobacterium abscessus ATCC 19977; type: functional
Xanthomonas oryzae = assay: […] activity against Xanthomonas oryzae by agar diffusion method; type: functional
Pyricularia oryzae = assay: […] activity against Pyricularia oryzae by agar diffusion method; type: functional
Mycolicibacterium phlei [8] = assay: Antimycobacterial activity against Mycobacterium phlei IPCR by agar diffusion method; type: functional
[9] = tested on: Human immunodeficiency virus 1; assay: Antiviral activity against HIV1; type: functional, organism-based
Influenza A virus H3N2 = assay: Antiviral activity against Influenza A virus (A/Hong Kong/7/1987(H3N2)) infected in MDCK cells after 3 days by MTT assay; type: functional, organism-based; settings: 72 h
Mycobacterium avium = assay: Antimycobacterial activity against Mycobacterium avium IFO 315 by agar diffusion method; type: functional
[10] = tested on: Human immunodeficiency virus 1; assay: Antiviral activity against HIV1 infected in U937 cells; type: functional, organism-based; settings: Human immunodeficiency virus 1, U-937
Alternaria kikuchiana [11] = assay: Antimicrobial activity against Alternaria kikuchiana NIAS by agar diffusion method; type: functional
Trypanosoma brucei = assay: Trypanocidal activity against bloodstream forms of Trypanosoma brucei […] incubated for 24 hrs followed by compound wash out after 72 hrs; type: functional
Alternaria kikuchiana [12] = assay: Antimicrobial activity against Alternaria kikuchiana A-14 by agar diffusion method; type: functional

| Structure (SMILES) | MIC (Staphylococcus aureus [3]) | MIC [4] | MIC (Mycolicibacterium phlei [5]) | MIC (Micrococcus luteus) | MIC (Staphylococcus aureus [6]) | MIC (Bacillus subtilis) | also measured |
| --- | --- | --- | --- | --- | --- | --- | --- |
| CC[C@@H](C(=O)[C@@H](C)[C@@H](O)[C@H](C)[C@@H]1O[C@@H]([C@@H](CC)C(=O)On2nnc3ccccc32)CC[C@@H]1C)[C@H]1O[C@]2(C=C[C@@H](O)[C@]3(CC[C@@](C)([C@H]4CC[C@](O)(CC)[C@H](C)O4)O3)O2)[C@H](C)C[C@@H]1C |  |  |  |  |  |  | MIC (Staphylococcus aureus [1]): 1 to 2 µg/mL (≈ 1.15 to 2.3 µM) |
| CN(C)[C@@H]1C(O)=C(C(N)=O)C(=O)[C@@]2(O)C(O)=C3C(=O)c4c(O)cccc4[C@@](C)(O)[C@H]3C[C@@H]12 [TETRACYCLINE] |  |  |  |  |  |  | MIC (Staphylococcus aureus [2]): 3.12 µg/mL (≈ 7.02 µM) |
| CC[C@@H](C(=O)[C@@H](C)[C@@H](O)[C@H](C)[C@@H]1O[C@@H]([C@@H](CC)C(=O)Nc2ccccc2)CC[C@@H]1C)[C@H]1O[C@]2(C=C[C@@H](O)[C@]3(CC[C@@](C)([C@H]4CC[C@](O)(CC)[C@H](C)O4)O3)O2)[C@H](C)C[C@@H]1C | 4 µg/mL (≈ 4.84 µM) |  |  |  |  |  | MIC (Staphylococcus aureus [1]): 2 µg/mL (≈ 2.42 µM) |
| CC[C@@H](C(=O)[C@@H](C)[C@@H](O)[C@H](C)[C@@H]1O[C@@H]([C@@H](CC)C(=O)OCc2cc([N+](=O)[O-])cc([N+](=O)[O-])c2)CC[C@@H]1C)[C@H]1O[C@]2(C=C[C@@H](O)[C@]3(CC[C@@](C)([C@H]4CC[C@](O)(CC)[C@H](C)O4)O3)O2)[C@H](C)C[C@@H]1C | 8 to 16 µg/mL (≈ 8.59 to 17.2 µM) | 4 to 8 µg/mL (≈ 4.3 to 8.59 µM) |  |  |  |  |  |
| CCCN(CCC)C(=O)[C@H](CC)[C@H]1CC[C@H](C)[C@H]([C@@H](C)[C@H](O)[C@H](C)C(=O)[C@H](CC)[C@H]2O[C@]3(C=C[C@@H](O)[C@]4(CC[C@@](C)([C@H]5CC[C@](O)(CC)[C@H](C)O5)O4)O3)[C@H](C)C[C@@H]2C)O1 |  | 4 to 8 µg/mL (≈ 4.8 to 9.59 µM) |  |  |  |  | MIC (Bacillus anthracis): 4 µg/mL (≈ 4.8 µM) |
| CCCCC(=O)O[C@@H]1C=C[C@]2(O[C@H]([C@@H](CC)C(=O)[C@@H](C)[C@@H](O)[C@H](C)[C@@H]3O[C@@H]([C@@H](CC)C(=O)O)CC[C@@H]3C)[C@@H](C)C[C@H]2C)O[C@@]12CC[C@@](C)([C@H]1CC[C@](O)(CC)[C@H](C)O1)O2 |  |  | 3.12 µg/mL (≈ 3.74 µM) | 1.56 µg/mL (≈ 1.87 µM) | 0.78 µg/mL (≈ 0.934 µM) | 1.56 µg/mL (≈ 1.87 µM) |  |
| CC[C@@H](C(=O)[C@@H](C)[C@@H](O)[C@H](C)[C@@H]1O[C@@H]([C@@H](CC)C(=O)O)CC[C@@H]1C)[C@H]1O[C@]2(C=C[C@@H](O)[C@]3(CC[C@@](C)([C@H]4CC[C@](O)(CC)[C@H](C)O4)O3)O2)[C@H](C)C[C@@H]1C [SALINOMYCIN] | 1 to 16 µg/mL (≈ 1.33 to 21.3 µM) | 1 to 16 µg/mL (≈ 1.33 to 21.3 µM) | 12.5 µg/mL (≈ 16.6 µM) | 3.12 µg/mL (≈ 4.15 µM) | 1.56 µg/mL (≈ 2.08 µM) | 3.12 µg/mL (≈ 4.15 µM) | MIC [7]: > 20 µg/mL; MIC (Xanthomonas oryzae): 50 µg/mL (≈ 66.6 µM); MIC (Bacillus anthracis): 1 µg/mL (≈ 1.33 µM); MIC (Pyricularia oryzae): 25 µg/mL (≈ 33.3 µM); MIC (Mycolicibacterium phlei [8]): 12.5 µg/mL (≈ 16.6 µM); EC50 [9]: 0.4 µg/mL (≈ 0.533 µM); EC50 (Influenza A virus H3N2): 400 to 4300 nM; MIC (Mycobacterium avium): 12.5 µg/mL (≈ 16.6 µM); EC50 [10]: 0.09 µg/mL (≈ 0.12 µM); MIC (Alternaria kikuchiana [11]): 50 µg/mL (≈ 66.6 µM); MIC (Staphylococcus aureus [1]): 1 to 2 µg/mL (≈ 1.33 to 2.66 µM); GI50 (Trypanosoma brucei): 180 nM; MIC (Alternaria kikuchiana [12]): 50 µg/mL (≈ 66.6 µM) |
| CC[C@@H](C(=O)[C@@H](C)[C@@H](O)[C@H](C)[C@@H]1O[C@@H]([C@@H](CC)C(=O)OCC(F)(F)F)CC[C@@H]1C)[C@H]1O[C@]2(C=C[C@@H](O)[C@]3(CC[C@@](C)([C@H]4CC[C@](O)(CC)[C@H](C)O4)O3)O2)[C@H](C)C[C@@H]1C | 0.5 to 1 µg/mL (≈ 0.6 to 1.2 µM) | 2 to 4 µg/mL (≈ 2.4 to 4.8 µM) |  |  |  |  | GI50 (Trypanosoma brucei): 57 nM |
| CC[C@@H](C(=O)[C@@H](C)[C@@H](O)[C@H](C)[C@@H]1O[C@@H]([C@@H](CC)C(=O)NCc2ccc(F)cc2)CC[C@@H]1C)[C@H]1O[C@]2(C=C[C@@H](O)[C@]3(CC[C@@](C)([C@H]4CC[C@](O)(CC)[C@H](C)O4)O3)O2)[C@H](C)C[C@@H]1C | 16 to 64 µg/mL (≈ 18.6 to 74.6 µM) | 16 to 128 µg/mL (≈ 18.6 to 149 µM) |  |  |  |  |  |
| CN[C@@H]1[C@H](O[C@H]2[C@H](O[C@H]3[C@H](O)[C@@H](O)[C@H](N=C(N)N)[C@@H](O)[C@@H]3N=C(N)N)O[C@@H](C)[C@]2(O)C=O)O[C@@H](CO)[C@H](O)[C@H]1O [STREPTOMYCIN] |  |  |  |  |  |  | MIC (Staphylococcus aureus [2]): 3.12 µg/mL (≈ 5.36 µM) |
| CC[C@@H](C(=O)[C@@H](C)[C@@H](O)[C@H](C)[C@@H]1O[C@@H]([C@@H](CC)C(=O)O)CC[C@@H]1C)[C@H]1O[C@]2(C=C[C@@H](OC=O)[C@]3(CC[C@@](C)([C@H]4CC[C@](O)(CC)[C@H](C)O4)O3)O2)[C@H](C)C[C@@H]1C |  |  | 12.5 µg/mL (≈ 16 µM) | 3.12 µg/mL (≈ 4.01 µM) | 1.56 µg/mL (≈ 2 µM) | 3.12 µg/mL (≈ 4.01 µM) |  |
| O=C(N[C@H](CO)[C@H](O)c1ccc([N+](=O)[O-])cc1)C(Cl)Cl [CHLORAMPHENICOL] |  |  |  |  |  |  | MIC (Staphylococcus aureus [2]): 3.12 µg/mL (≈ 9.66 µM) |
| CC[C@@H](C(=O)[C@@H](C)[C@@H](O)[C@H](C)[C@@H]1O[C@@H]([C@@H](CC)C(=O)O)CC[C@@H]1C)[C@H]1O[C@]2(C=C[C@@H](OC(C)=O)[C@]3(CC[C@@](C)([C@H]4CC[C@](O)(CC)[C@H](C)O4)O3)O2)[C@H](C)C[C@@H]1C |  |  | 6.25 µg/mL (≈ 7.88 µM) | 1.56 µg/mL (≈ 1.97 µM) | 0.78 µg/mL (≈ 0.984 µM) | 1.56 µg/mL (≈ 1.97 µM) |  |
| CC[C@@H](C(=O)[C@@H](C)[C@@H](O)[C@H](C)[C@@H]1O[C@@H]([C@@H](CC)C(=O)N(CC)CC)CC[C@@H]1C)[C@H]1O[C@]2(C=C[C@@H](O)[C@]3(CC[C@@](C)([C@H]4CC[C@](O)(CC)[C@H](C)O4)O3)O2)[C@H](C)C[C@@H]1C |  | 4 to 8 µg/mL (≈ 4.96 to 9.92 µM) |  |  |  |  | MIC (Bacillus anthracis): 1 µg/mL (≈ 1.24 µM) |
| CC[C@H]1OC(=O)[C@H](C)[C@@H](O[C@H]2C[C@@](C)(OC)[C@@H](O)[C@H](C)O2)[C@H](C)[C@@H](O[C@@H]2O[C@H](C)C[C@H](N(C)C)[C@H]2O)[C@](C)(O)C[C@@H](C)C(=O)[C@H](C)[C@@H](O)[C@]1(C)O [ERYTHROMYCIN] |  |  |  |  |  |  | MIC (Staphylococcus aureus [2]): 3.12 µg/mL (≈ 4.25 µM) |
| CC[C@@H](C(=O)[C@@H](C)[C@@H](O)[C@H](C)[C@@H]1O[C@@H]([C@@H](CC)C(=O)OC[C@H]2O[C@@H](n3cc(F)c(=O)[nH]c3=O)C[C@@H]2O)CC[C@@H]1C)[C@H]1O[C@]2(C=C[C@@H](O)[C@]3(CC[C@@](C)([C@H]4CC[C@](O)(CC)[C@H](C)O4)O3)O2)[C@H](C)C[C@@H]1C | 8.17 to 32.7 µg/mL (≈ 8.34 to 33.4 µM) | 8.17 to 32.7 µg/mL (≈ 8.34 to 33.4 µM) |  |  |  |  |  |
| CCC(=O)O[C@@H]1C=C[C@]2(O[C@H]([C@@H](CC)C(=O)[C@@H](C)[C@@H](O)[C@H](C)[C@@H]3O[C@@H]([C@@H](CC)C(=O)O)CC[C@@H]3C)[C@@H](C)C[C@H]2C)O[C@@]12CC[C@@](C)([C@H]1CC[C@](O)(CC)[C@H](C)O1)O2 |  |  | 1.56 µg/mL (≈ 1.93 µM) | 0.78 µg/mL (≈ 0.966 µM) | 0.78 µg/mL (≈ 0.966 µM) | 0.78 µg/mL (≈ 0.966 µM) |  |
| CCCC(=O)O[C@@H]1C=C[C@]2(O[C@H]([C@@H](CC)C(=O)[C@@H](C)[C@@H](O)[C@H](C)[C@@H]3O[C@@H]([C@@H](CC)C(=O)O)CC[C@@H]3C)[C@@H](C)C[C@H]2C)O[C@@]12CC[C@@](C)([C@H]1CC[C@](O)(CC)[C@H](C)O1)O2 |  |  | 1.56 µg/mL (≈ 1.9 µM) | 0.78 µg/mL (≈ 0.95 µM) | 0.78 µg/mL (≈ 0.95 µM) | 0.78 µg/mL (≈ 0.95 µM) |  |
| CCCCNC(=O)[C@H](CC)[C@H]1CC[C@H](C)[C@H]([C@@H](C)[C@H](O)[C@H](C)C(=O)[C@H](CC)[C@H]2O[C@]3(C=C[C@@H](O)[C@]4(CC[C@@](C)([C@H]5CC[C@](O)(CC)[C@H](C)O5)O4)O3)[C@H](C)C[C@@H]2C)O1 |  |  |  |  |  |  | GI50 (Trypanosoma brucei): 40 nM |
